Measured values as given in ChEMBL document CHEMBL5038662, “Isolation, Synthesis, and Structure-Activity Relationship Study on Daphnane and Tigliane Diterpenes as HIV Latency-Reversing Agents” (J Med Chem, 2022).

Columns and labels:
[1] = system: Human immunodeficiency virus 1; assay: Antiviral activity against HIV1 in human TZM-bl cells transfected with firefly luciferase and beta-galactosidase reporter genes assessed as activation of LTR-mediated transcriptional activity incubated for 24 hrs by luciferase reporter gene assay; type: functional, organism-based; details: Human immunodeficiency virus 1, TZM-bl
TZM = assay: Cytotoxicity against human TZM-bl cells measured upto 0.1 uM; type: toxicity, cell-based

Row | Structure (SMILES) | EC50 [1] | Activity (TZM)
1 | C=C(C)[C@]12C[C@@H](C)[C@@]34O[C@]5(CCCCCCC[C@H](C)[C@H]6[C@H](C)C(=O)[C@@](O)([C@H](O)[C@@]7(CO)O[C@H]7[C@H]3[C@H]1O5)[C@@H]64)O2 | 6.9 nM | –
2 | CC/C=C\C/C=C\CCC(=O)O[C@@]12[C@H](OC(=O)c3ccccc3)[C@@H](C)[C@@]3(O)[C@@H](C=C(CO)C[C@]4(O)C(=O)C(C)=C[C@@H]34)[C@@H]1C2(C)C | 3.2 nM | –
3 | CCCCCCCC(=O)O[C@@]12[C@H](OC(=O)c3ccccc3)[C@@H](C)[C@]3(O)[C@@H]4C=C(C)C(=O)[C@@]4(O)[C@H](O)C(CO)=C[C@H]3[C@@H]1C2(C)C | 12 nM | –
4 | CCCCCCCCCC(=O)O[C@@]12[C@H](OC(=O)c3ccccc3)[C@@H](C)[C@@]3(O)[C@@H](C=C(CO)C[C@]4(O)C(=O)C(C)=C[C@@H]34)[C@@H]1C2(C)C [STELLERARIN] | 0.74 nM | –
5 | C=C(C)[C@]12C[C@@H](C)[C@@]34OC5(CCCCCCC[C@@H](C)[C@H]6[C@H](C)[C@H](OCc7ccccc7)[C@@](O)([C@H](O)[C@@]7(CO)O[C@H]7[C@H]3[C@H]1O5)[C@@H]64)O2 | 2.7 nM | –
6 | C=C(C)[C@]12CC[C@@]34OC(C)(O[C@@H]1[C@@H]3[C@@H]1O[C@]1(CO)[C@@H](O)[C@]1(O)C(=O)[C@@H](C)C[C@@H]41)O2 | 3.7 nM | –
7 | CCCCC/C=C\CCC(=O)O[C@@]12[C@H](OC(=O)c3ccccc3)[C@@H](C)[C@@]3(O)[C@@H](C=C(CO)C[C@]4(O)C(=O)C(C)=C[C@@H]34)[C@@H]1C2(C)C | 4.2 nM | Non-Toxic
8 | CCCCCCCCCCCCCCCCCC(=O)O[C@@]12[C@H](OC(=O)c3ccccc3)[C@@H](C)[C@@]3(O)[C@@H](C=C(CO)C[C@]4(O)C(=O)C(C)=C[C@@H]34)[C@@H]1C2(C)C | – | Non-Toxic
9 | C=C(C)[C@]12C[C@@H](C)[C@@]34O[C@@](CCCCCCCCC)(O[C@@H]1[C@@H]3[C@@H]1O[C@]1(CO)[C@@H](O)[C@]1(O)C(=O)C(C)=C[C@H]14)O2 | 9 nM | –
10 | C=C(C)[C@@]12O[C@]3(/C=C/C=C/CCCCCCCCC)O[C@@H]1[C@@H]1[C@@H]4O[C@]4(CO)[C@@H](O)[C@]4(O)C(=O)C(C)=C[C@H]4[C@@]1(O3)[C@H](C)[C@H]2OC(C)=O | 0.39 nM | –
11 | CCCCC/C=C/CCC(=O)O[C@@]12[C@H](OC(=O)c3ccccc3)[C@@H](C)[C@@]3(O)[C@@H](C=C(CO)C[C@]4(O)C(=O)C(C)=C[C@@H]34)[C@@H]1C2(C)C | 5.8 nM | Non-Toxic

Second part, led by results:

Row | EC50 [1] | Structure (SMILES) | Activity (TZM)
12 | 0.94 nM | CCCCCCC(=O)O[C@@]12[C@H](OC(=O)c3ccccc3)[C@@H](C)[C@@]3(O)[C@@H](C=C(CO)C[C@]4(O)C(=O)C(C)=C[C@@H]34)[C@@H]1C2(C)C | –
13 | 16 nM | CCCCCCCC/C=C\CCCCCCCC(=O)O[C@@]12[C@H](OC(=O)c3ccccc3)[C@@H](C)[C@@]3(O)[C@@H](C=C(CO)C[C@]4(O)C(=O)C(C)=C[C@@H]34)[C@@H]1C2(C)C | Non-Toxic
14 | 1.5 nM | CCCCCCCC(=O)O[C@@]12[C@H](OC(=O)c3ccccc3)[C@@H](C)[C@@]3(O)[C@@H](C=C(CO)C[C@]4(O)C(=O)C(C)=C[C@@H]34)[C@@H]1C2(C)C | –
15 | 3.7 nM | C=C(C)[C@]12C[C@@H](COCc3ccccc3)[C@@]34OC5(CCCCCCC[C@@H](C)[C@H]6[C@H](C)C(=O)[C@@](O)([C@H](O)[C@@]7(CO)O[C@H]7[C@H]3[C@H]1O5)[C@@H]64)O2 | –
16 | 10 nM | CCCCC/C=C/C/C=C\C/C=C\CCCCC(=O)O[C@@]12[C@H](OC(=O)c3ccccc3)[C@@H](C)[C@@]3(O)[C@@H](C=C(CO)C[C@]4(O)C(=O)C(C)=C[C@@H]34)[C@@H]1C2(C)C | Non-Toxic
17 | 13 nM | CCCCC/C=C\C/C=C\CCCCCCCC(=O)O[C@@]12[C@H](OC(=O)c3ccccc3)[C@@H](C)[C@@]3(O)[C@@H](C=C(CO)C[C@]4(O)C(=O)C(C)=C[C@@H]34)[C@@H]1C2(C)C | Non-Toxic
18 | 0.14 nM | C=C(C)[C@]12CC[C@@]34OC(C)(O[C@@H]1[C@@H]3[C@@H]1O[C@]1(CO)[C@@H](O)[C@]1(O)[C@@H](OCc3ccccc3)[C@@H](C)C[C@@H]41)O2 | –
19 | 10 nM | CCC(=O)O[C@@]12[C@H](OC(=O)c3ccccc3)[C@@H](C)[C@@]3(O)[C@@H](C=C(CO)C[C@]4(O)C(=O)C(C)=C[C@@H]34)[C@@H]1C2(C)C | Non-Toxic
20 | 3.9 nM | C=C(C)[C@]12C[C@@H](COCc3ccccc3)[C@@]34OC5(CCCCC[C@@H](OCc6ccccc6)C[C@@H](C)[C@H]6[C@H](C)[C@H](OCc7ccccc7)[C@@](O)([C@H](O)[C@@]7(CO)O[C@H]7[C@H]3[C@H]1O5)[C@@H]64)O2 | –
21 | 7.6 nM | CC/C=C\C/C=C\C/C=C\CCCCCCCC(=O)O[C@@]12[C@H](OC(=O)c3ccccc3)[C@@H](C)[C@@]3(O)[C@@H](C=C(CO)C[C@]4(O)C(=O)C(C)=C[C@@H]34)[C@@H]1C2(C)C | Non-Toxic
22 | 0.33 nM | C=C(C)[C@]12C[C@@H](COC(C)=O)[C@@]34OC5(O[C@@H]1[C@@H]3[C@@H]1O[C@]1(CO)[C@@H](O)[C@@]1(O)[C@H]4[C@H]([C@H](C)[C@@H]1OCc1ccccc1)[C@H](C)CCCCCC[C@H]5O)O2 | –
23 | 18 nM | CCCCC/C=C\CCC(=O)O[C@@H]1[C@@H](C)[C@@]2(O)[C@@H](C=C(CO)C[C@]3(O)C(=O)C(C)=C[C@@H]23)[C@@H]2C(C)(C)[C@]12OC(=O)c1ccccc1 | Non-Toxic
24 | 12 nM | C=C(C)[C@]12C[C@@H](COC(C)=O)[C@@]34OC5(O[C@@H]1[C@@H]3[C@@H]1O[C@]1(CO)[C@@H](O)[C@@]1(O)[C@H]4[C@H]([C@H](C)[C@@H]1OCc1ccccc1)[C@H](C)C[C@H](OCc1ccccc1)CCCC[C@H]5O)O2 | –
